# Entries after “also recorded” stand apart in the source; their conditions may differ.
# Assays:
# [1] = test system: HN5 cells; experiment: γ-H2AX foci formation (DNA damage); format: cell-based; conditions: inhibitor pretreatment, cGNR 24h, 2 Gy (250 kV, 15 mA)
# From the text: (§1) FIGS. 5A-5G: Blocking endocytosis steps modulates radiosensitization by cGNRs. […] The radiation dose enhancement factor (DEF) at 10% cell survival was cGNR—1.08, CPZ+cGNR—1.005, BAF-A1+cGNR—1.19, LAC+cGNR—1.16, and CHQ+cGNR—1.20. (B) Intracellular localization cGNR in HN5 cells imaged by TEM 24 hrs after treatment with cGNRs in the presence of (a) PBS, (b) CPZ, (c) BAF-A1, (d) LAC or (e) CHQ for 1 hr. […] (E) Reactive oxygen species measured by CellROX assay kit following treatment of HN5 cells with 2 Gy radiation in the absence or presence of specific inhibitors of internalization with and without cGNRs. […] (F) Elemental gold content of cells analyzed by inductively coupled plasma mass spectrometry.
# Therefore, γ-H2AX was evaluated in HN5 cells pretreated with different pharmacological inhibitors and incubated with cGNR for 24h followed by 2 Gy of radiation (250 kV, 15 mA) (FIG. 5C).
# [2] = test system: HN5 cells; experiment: Clonogenic survival with inhibitors of endocytosis steps plus cGNR; format: cell-based; conditions: HN5, 250 kVp; inhibitor pre-treatment 1 hr, then cGNR 24 hr; CPZ 5 μg/ml, BAF-A1 100 nM, LAC 1 μM, CHQ 5 μM
# From the text: as §1
# (§2) To study the effect of each step of cGNR internalization on radiosensitization, each step of the endocytotic pathway (energy-dependent receptor-mediated endocytosis, early endosomal entrapment, stasis in the late endosomal compartment, and endolysosomal fusion) was blocked using pharmacologic inhibitors in HN5 cells.
# [3] = test system: HN5 cells; experiment: Elemental gold content of cells by ICP-MS; format: cell-based; conditions: 24 h treatment
# From the text: as §1
# [4] = test system: HN5 xenografts; experiment: Tumor regrowth delay of HN5 xenografts with radiation; format: in vivo, nu/nu mice; conditions: CHQ 6 hrs and 24 hrs before radiation, with cGNRs; p=0.02
# From the text: as §1
# [5] = test system: HN5 cells; experiment: Intracellular localization of cGNR by TEM; format: cell-based; conditions: TEM 24 hrs after cGNRs, inhibitor for 1 hr
# From the text: as §1, §2
# [6] = test system: HN5 cells; experiment: Reactive oxygen species by CellROX assay kit; format: cell-based; conditions: 2 Gy radiation, with cGNRs, with or without inhibitors
# From the text: as §1
# [7] = test system: HN5 cells; experiment: Micronuclei per 1000 binucleated cells; format: cell-based; conditions: cGNRs 24 hrs and radiation, inhibitor pretreatment 1 hr
# From the text: as §1
# FIG. 10A-10C: Number of micronuclei per 1000 binucleated cells broken down as (A) one, (B) two, or (C) multiple. Cells were treated with cGNRs and radiation in the absence or presence of specific inhibitors of internalization.
Structure (SMILES),γ-H2AX foci / DNA damage [1],γ-H2AX foci / DNA damage ([1]; listed as CHQ),radiation dose enhancement factor (DEF) at 10% cell survival [2],cellular gold content / uptake of cGNR [3],cellular gold content / uptake of cGNR ([3]; listed as CHQ),time to tumor volume quadrupling [4],intracellular localization of cGNR [5],intracellular reactive oxygen species [6],intracellular reactive oxygen species ([6]; listed as BAF-A1),γ-H2AX foci / DNA damage ([1]; listed as BAF-A1),γ-H2AX foci / DNA damage ([1]; listed as Bafilomycin),micronuclei per 1000 binucleated cells [7],micronuclei per 1000 binucleated cells ([7]; listed as BAF-A1),cellular gold content / uptake of cGNR ([3]; listed as BAF-A1),intracellular reactive oxygen species ([6]; listed as LAC),γ-H2AX foci / DNA damage ([1]; listed as LAC),micronuclei per 1000 binucleated cells ([7]; listed as LAC),cellular gold content / uptake of cGNR ([3]; listed as LAC),γ-H2AX foci / DNA damage ([1]; listed as CPZ)
CCN(CC)CCCC(C)Nc1ccnc2cc(Cl)ccc12 (stereo not shown) [chloroquine],further enhanced the DNA damage,increased foci formation,1.2,no significant differences in the cellular uptake of cGNR,no different,statistically significant increase in time to tumor volume quadrupling,unclustered cGNRs,,,,,,,,,,,,
"CO/C1=C\C(C)=C\[C@@H](C)[C@@H](O)[C@@H](C)C/C(C)=C/C=C/[C@H](OC)[C@@H]([C@@H](C)[C@@H](O)[C@H](C)[C@@]2(O)C[C@@H](O)[C@H](C)[C@@H](C(C)C)O2)OC1=O [bafilomycin A, bafilomycin A1]",greatest increase in DNA damage,,1.19,no significant differences in the cellular uptake of cGNR,,,unclustered cGNRs,further enhanced the intracellular ROS,even greater enhancement of oxidative stress,increased foci formation,further enhanced the DNA damage,significantly higher number of MNBC,enhancement in radiosensitization; also recorded: significant increase in radiation-induced micronuclei formation,no different,,,,,
CC(=O)N[C@@H](CSC(=O)[C@]1([C@@H](O)C(C)C)NC(=O)[C@H](C)[C@@H]1O)C(=O)O [lactacystin],further enhanced the DNA damage,,1.16,no significant differences in the cellular uptake of cGNR,,,unclustered cGNRs,further enhanced the intracellular ROS,,,,significantly higher number of MNBC,,,even greater enhancement of oxidative stress,increased foci formation,enhancement in radiosensitization; also recorded: significant increase in radiation-induced micronuclei formation,no different,
CN(C)CCCN1c2ccccc2Sc2ccc(Cl)cc21 [chlorpromazine],abrogated the effect of cGNR treatment,,1.005,significantly (p<0.001) inhibited the cellular uptake of cGNRs,,,blocked internalization of cGNRs,reduced the intracellular ROS,,,,,,,,,,,not

# From patent US20180250404A1, “HIGH-Z NANOPARTICLES AND THE USE THEREOF IN RADIATION THERAPY” (Board of Regents, The University of Texas System, priority 2015, published 2018)
